# Patent publication US7897389B2, “Direct differentiation method for making cardiomyocytes from human embryonic stem cells” (Geron Corporation, priority 2008, dated 2011)
# Tests used:
# [1] = test system: hES-derived cardiomyocytes; assay: Chronotropic effects of cardioactive drugs on beating hES-derived cardiomyocytes; format: cell-based, human; conditions: for chronotropic effect on beating rate: FIG. 2 Panels B-E
# Description: The function of hES-derived cardiomyocytes was tested by determining whether the cardiomyocytes respond appropriately to the chronotropic effects of cardioactive drugs.
# When cells were treated with 10^−5 M diltiazem, 100% of the beating areas stopped contraction. […] Thus, the hES cell derived cells respond to cardioactive drugs in a manner appropriate for cells of the cardiomyocyte lineage.
# [2] = test system: Embryoid bodies from the H1 or H9 line
# Description: Embryoid bodies from the H1 or H9 line were treated at differentiation day 1-4, 4-6 or 6-8 with 5-aza-deoxy-cytidine, a cytosine analog that affects DNA methylation. Cells were harvested at day 15, and analyzed for cardiac MHC by real-time RT-PCR.
# Other reagents examined for an ability to induce cardiomyocyte differentiation included dimethyl sulfoxide (DMSO) and all-trans retinoic acid (RA).
compound,measurement,setting,value
CNC[C@H](O)c1cccc(O)c1 [phenylephrine],chronotropic effect on beating rate,[1],positive chronotropic effects
CC(C)NCC(O)c1ccc(O)c(O)c1 (stereo not shown) [isoprenaline],chronotropic effect on beating rate,[1],positive chronotropic effects
"CC1=C(/C=C/C(C)=C/C=C/C(C)=C/C(=O)O)C(C)(C)CCC1 [RA, all-trans retinoic acid]",toxicity to the cells,[2],toxic
same,beating cells compared with untreated cultures,"[2]; 10^−9 to 10^−5 M, days 4-8, 8-15, or 4-15",no increase in beating cells
Nc1ncn([C@H]2C[C@H](O)[C@@H](CO)O2)c(=O)n1 [5-aza-deoxy-cytidine],proportion of beating areas in the culture,[2]; 1 to 10 μM at day 6-8,increased
same,expression of cardiac α-MHC,"[2]; 1 to 10 μM at day 6-8, harvested day 15, real-time RT-PCR",significantly increased
COc1ccc([C@@H]2Sc3ccccc3N(CCN(C)C)C(=O)[C@@H]2OC(C)=O)cc1 [diltiazem],beating rate,"[1]; FIG. 2 Panel A, concentration-dependent",inhibited
"C[S+](C)[O-] [DMSO, dimethyl sulfoxide]",beating areas vs non-treated cultures,[2]; 0.5% from days 0-4,fewer beating areas
same,beating cells,[2]; 0.8% or 1%,absent
same,α-MHC expression compared with untreated cultures,[2]; DMSO treatment,significant reduction
